Laboratory results as given in US11091815B2, “Integrated methods for treating lignocellulosic material” (VIRDIA, LLC, priority 2015, dated 2021).
Like-named read-outs stand apart in the source and are kept apart here.

Test: Partition coefficient in a two phase system of water and MEK
Assay type: physicochemical
Procedure: Water and methylethyl ketone (MEK) were shaken for several minutes to allow saturation of each phase. The phases were separated. An excess amount of fumaric acid was stirred at 40° C. in each phase for 5 hours in a closed container. A sample of the solution was diluted with water and filtered. The concentration of fumaric acid was determined by HPLC by injecting 1-20 μL onto a Bio-Rad Aminex HPX-87H 7.2 mm column, using 0.003 M H2SO4 as eluent, flow rate 0.6 mL/min, temperature 65° C., and an RI detector. The saturated solution was held in a thermostated bath at 25° C., 10° C., 4° C. and 0° C. and allowed to equilibrate at each temperature. A sample of each solution was taken, diluted with water and injected onto the HPLC to determine fumaric acid concentration. Similarly, excess amounts of fumaric acid and Ca(OH)2 were shaken with each phase and the concentration of fumaric acid determined by HPLC in a diluted, filtered sample.
An excess amount of fumaric acid was shaken overnight at 4° C. in a biphasic system of water and MEK. The fumaric acid concentration in each phase was determined by HPLC as described in Example 4. Similarly, excess amounts of both fumaric acid and calcium hydroxide were equilibrated with a biphasic system of water and MEK. The partition coefficient was calculated as:
[formula] K was determined to be 8.6 for fumaric acid and 0.5 for calcium fumarate.

Structure (SMILES)	partition coefficient K (biphasic system of water and MEK, excess solid shaken overnight at 4° C., concentration in each phase by HPLC, calcium fumarate: excess fumaric acid and calcium hydroxide)	partition coefficient K
O=C([O-])/C=C/C(=O)[O-].[Ca+2] [calcium fumarate]	0.5	–
O=C(O)/C=C/C(=O)O [fumaric acid]	–	8.6
